For data set [1], the system named is mir-155^LSLtTA lymphoma subcutaneous flank tumors. Description: mir-155^LSLtTA lymphoma subcutaneous flank tumor model in nude mice. The class given is in vivo. Conditions: early endpoint study; n = 3, pHLIP-anti155 n = 4.
The conditions of data set [2]: mouse, in vivo, iv.

For the compound `C[C@H]1c2cccc(O)c2C(=O)C2=C(O)[C@]3(O)C(=O)C(C(N)=O)=C(O)[C@@H](N(C)C)[C@@H]3[C@@H](O)[C@@H]21` [DOX, doxycycline], the “Onset of splenomegaly (spleen mass)” value in data set [1] was “reduced the onset of splenomegaly”.
For “AAEQNPIYWARYADWLFTTPLLLLDLALLVDADEGT(CNPys)G [pHLIP]”, in data set [2], the Clearance route result was “much of the peptide is cleared by renal excretion” and the Kidney distribution result is given as “shows kidney targeting”.

(Values after paper PMC4367962 (Nature, 2014).)
